Measured values taken from ChEMBL document CHEMBL1201862, “PubChem BioAssay data set” (2004).
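These data come from cells grown in 96-well plates and exposed to compound for 48 hours at five concentrations. The concentration for 50% growth inhibition is given as GI50.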 Activity calls are given as the source filed them. Cut-off read from the data, not from the text of the source: active = GI50 up to about 1.1 µM and inactive = higher.

What was measured:
Experiment in all cases: growth of human tumour cells (NCI), 48 h
786-0 = tested on: 786-0
A498 = tested on: A498
A549 = tested on: A549
ACHN = tested on: ACHN
BT-549 = tested on: BT-549
CAKI-1 = tested on: CAKI-1
CCRF-CEM = tested on: CCRF-CEM
COLO 205 = tested on: COLO 205
DU-145 = tested on: DU-145
EKVX = tested on: EKVX
HCT-116 = tested on: HCT-116
HCT-15 = tested on: HCT-15
HL-60 = tested on: HL-60
HOP-62 = tested on: HOP-62
HT-29 = tested on: HT-29
Hs-578T = tested on: Hs-578T
IGROV-1 = tested on: IGROV-1
KM12 = tested on: KM12
LOX IMVI = tested on: LOX IMVI
M14 = tested on: M14
MCF7 = tested on: MCF7
MDA-MB-231 = tested on: MDA-MB-231
MDA-MB-435 = tested on: MDA-MB-435
MDA-N = tested on: MDA-N
Malme-3M = tested on: Malme-3M
NCI-H23 = tested on: NCI-H23
NCI-H460 = tested on: NCI-H460
NCI-H522 = tested on: NCI-H522
NCI/ADR-RES = tested on: NCI/ADR-RES
OVCAR-3 = tested on: OVCAR-3
OVCAR-4 = tested on: OVCAR-4
OVCAR-5 = tested on: OVCAR-5
OVCAR-8 = tested on: OVCAR-8
PC-3 = tested on: PC-3
RPMI-8226 = tested on: RPMI-8226
RXF 393 = tested on: RXF 393
SF-268 = tested on: SF-268
SF-295 = tested on: SF-295
SF-539 = tested on: SF-539
SK-MEL-28 = tested on: SK-MEL-28
SK-MEL-2 = tested on: SK-MEL-2
SK-MEL-5 = tested on: SK-MEL-5
SK-OV-3 = tested on: SK-OV-3
SN12C = tested on: SN12C
SNB-19 = tested on: SNB-19
SNB-75 = tested on: SNB-75
SR = tested on: SR
SW-620 = tested on: SW-620
T47D = tested on: T47D
TK-10 = tested on: TK-10
U-251 = tested on: U-251
UACC-257 = tested on: UACC-257
UACC-62 = tested on: UACC-62
UO-31 = tested on: UO-31
K562 = tested on: K562
MOLT-4 = tested on: MOLT-4
NCI-H226 = tested on: NCI-H226
HCC 2998 = tested on: HCC 2998

Measured: GI50

C/C(=N\Nc1nc2ccccc2s1)c1ccc2ccccc2n1
inactive: 786-0 > 100 µM | A498 > 100 µM | A549 > 100 µM | ACHN > 100 µM | BT-549 > 100 µM | CAKI-1 55.6 µM | CCRF-CEM 25.7 µM | COLO 205 75.7 µM | DU-145 > 100 µM | EKVX 12.2 µM | HCT-116 > 100 µM | HL-60 23.2 µM | HOP-62 > 100 µM | HT-29 85.9 µM | Hs-578T 84.1 µM | KM12 59.2 µM | LOX IMVI > 100 µM | M14 46.2 µM | MCF7 46.3 µM | MDA-MB-231 46 µM | MDA-MB-435 > 100 µM | MDA-N > 100 µM | Malme-3M 58.6 µM | NCI-H23 > 100 µM | NCI-H460 > 100 µM | NCI-H522 32.3 µM | NCI/ADR-RES > 100 µM | OVCAR-3 34.8 µM | OVCAR-4 11.2 µM | OVCAR-5 91 µM | OVCAR-8 > 100 µM | PC-3 > 100 µM | RPMI-8226 18.5 µM | RXF 393 26.4 µM | SF-268 28.8 µM | SF-295 > 100 µM | SF-539 58.7 µM | SK-MEL-28 > 100 µM | SK-MEL-2 58.5 µM | SK-MEL-5 30.2 µM | SK-OV-3 > 100 µM | SN12C > 100 µM | SNB-19 > 100 µM | SNB-75 15.5 µM | SR 2 µM | SW-620 > 100 µM | T47D 5.36 µM | TK-10 88.7 µM | U-251 > 100 µM | UACC-257 > 100 µM | UACC-62 > 100 µM | UO-31 53.7 µM
active: IGROV-1 0.402 µM
> 100 µM: HCT-15

COc1ccccc1NC(=S)Nc1cc(C)ccn1
> 100 µM: HCT-15
inactive: 786-0 > 100 µM | A498 > 100 µM | A549 > 100 µM | BT-549 > 100 µM | CAKI-1 > 100 µM | CCRF-CEM > 100 µM | COLO 205 > 100 µM | DU-145 > 100 µM | EKVX > 100 µM | HCT-116 > 100 µM | HL-60 > 100 µM | HOP-62 66.8 µM | HT-29 > 100 µM | Hs-578T > 100 µM | IGROV-1 74 µM | K562 > 100 µM | KM12 > 100 µM | LOX IMVI > 100 µM | M14 > 100 µM | MCF7 > 100 µM | MDA-MB-231 20 µM | MDA-MB-435 > 100 µM | MDA-N > 100 µM | MOLT-4 > 100 µM | Malme-3M > 100 µM | NCI-H226 > 100 µM | NCI-H460 > 100 µM | NCI-H522 > 100 µM | NCI/ADR-RES > 100 µM | OVCAR-3 > 100 µM | OVCAR-4 > 100 µM | OVCAR-5 > 100 µM | OVCAR-8 > 100 µM | PC-3 > 100 µM | RPMI-8226 > 100 µM | RXF 393 96.6 µM | SF-268 91 µM | SF-295 > 100 µM | SF-539 > 100 µM | SK-MEL-28 > 100 µM | SK-MEL-2 > 100 µM | SK-MEL-5 > 100 µM | SK-OV-3 > 100 µM | SN12C > 100 µM | SNB-19 > 100 µM | SNB-75 > 100 µM | SR > 100 µM | SW-620 > 100 µM | T47D > 100 µM | TK-10 > 100 µM | U-251 > 100 µM | UACC-257 > 100 µM | UACC-62 > 100 µM | UO-31 > 100 µM

CC(C)c1cc(Cl)nc(Cl)n1
inactive: 786-0 > 100 µM | A498 > 100 µM | A549 > 100 µM | ACHN > 100 µM | BT-549 > 100 µM | CAKI-1 > 100 µM | CCRF-CEM > 100 µM | COLO 205 > 100 µM | DU-145 > 100 µM | EKVX > 100 µM | HCC 2998 > 100 µM | HCT-116 > 100 µM | HL-60 > 100 µM | HT-29 > 100 µM | Hs-578T > 100 µM | IGROV-1 > 100 µM | K562 > 100 µM | KM12 > 100 µM | LOX IMVI > 100 µM | M14 > 100 µM | MCF7 > 100 µM | MDA-MB-231 > 100 µM | MDA-MB-435 > 100 µM | MDA-N > 100 µM | MOLT-4 > 100 µM | NCI-H226 > 100 µM | NCI-H23 > 100 µM | NCI-H460 > 100 µM | NCI-H522 > 100 µM | NCI/ADR-RES > 100 µM | OVCAR-3 > 100 µM | OVCAR-4 > 100 µM | OVCAR-5 > 100 µM | OVCAR-8 > 100 µM | PC-3 > 100 µM | RPMI-8226 > 100 µM | RXF 393 > 100 µM | SF-268 > 100 µM | SF-295 > 100 µM | SF-539 > 100 µM | SK-MEL-28 > 100 µM | SK-MEL-2 > 100 µM | SK-MEL-5 > 100 µM | SK-OV-3 > 100 µM | SN12C > 100 µM | SNB-19 > 100 µM | SNB-75 > 100 µM | SR > 100 µM | SW-620 > 100 µM | T47D > 100 µM | TK-10 > 100 µM | U-251 > 100 µM | UACC-257 > 100 µM | UACC-62 > 100 µM | UO-31 > 100 µM
> 100 µM: HCT-15
